These results are taken from patent publication US20250382361A1, “AFFIBODIES, HYDROGELS CONTAINING AFFIBODIES, AND USES THEREOF” (University of Oregon, priority 2024, published 2025).

Where two headings read alike, the source gives them in different places.

The target in test [1] is antithrombin-III (Homo sapiens, UniProt P01008). Particulars: cited from earlier work.
The target in test [2] is integrin α5β1 (Homo sapiens, UniProt P05556+P08648). Particulars: cited from earlier work.
For test [3], the target named is fibroblast growth factor-1 (Homo sapiens, UniProt P05230). As to conditions: cited from earlier work.
Chain of fibroblast growth factor-1 (P05230 whole entry, species assumed): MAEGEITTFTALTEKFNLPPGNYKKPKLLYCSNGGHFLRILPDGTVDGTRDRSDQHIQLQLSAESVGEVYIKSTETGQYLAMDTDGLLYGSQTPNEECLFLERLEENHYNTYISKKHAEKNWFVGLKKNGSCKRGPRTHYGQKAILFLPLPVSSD
Test [4] concerns the target T1, VEGF165 (Homo sapiens, UniProt P15692).
T1 construct: biotin (label as supplied by the vendor); purchased Acro Biosystems
T1 sequence (P15692 1-191 isoform P15692-4): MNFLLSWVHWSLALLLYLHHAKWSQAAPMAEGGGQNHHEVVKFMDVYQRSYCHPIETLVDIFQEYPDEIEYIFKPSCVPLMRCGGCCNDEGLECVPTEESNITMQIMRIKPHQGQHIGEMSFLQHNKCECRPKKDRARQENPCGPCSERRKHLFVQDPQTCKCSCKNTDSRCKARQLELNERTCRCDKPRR
Particulars: cited from earlier work.

Test [5] deals with HUVECs. Description: Endothelial tube formation assay. The format is cell-based, human. The procedure:
Human umbilical vein endothelial cells (HUVECs) were seeded in tissue culture flasks at 2,500 cells/cm^2 and cultured in complete Endothelial Growth Medium (Lonza, Walkersville, MD) at 37° C. and 5% CO2. Upon reaching 60-80% confluence, cells were washed with PBS, trypsinized, and seeded at 5,000 or 15,000 cells/well onto 96-well plates pre-coated with 100 μL of Cultrex Reduced Growth Factor Basement Membrane Extract (RGF BME, R&D Systems). HUVECs were allowed to adhere to the coated surface for 2 hours. […] Cells were cultured for 48 hours on a BioTek Lionheart FX automated microscope (Agilent Technologies, Santa Clara, CA) at 37° C. and 5% CO2 with 4× phase contrast time lapse images taken at 4, 8, 12, 16, 20, 24, and 48 hours. Total network length and branching of HUVEC networks were measured from images using the Angiogenesis Analyzer plugin for ImageJ.
Responses of HUVECs to each of the three growth factors of interest were first studied.

For test [6], the system named is HUVECs. Briefly: VEGF bioactivity HUVEC proliferation assay (CellTiter-Glo). As to conditions: VEGF for 96 hours. Format: cell-based, human. In general terms: ATP-based viability assays read luminescence as a measure of living cells.
Test [7] has as its target PDGF receptor beta (PDGFRβ) on NIH/3T3-Luc cells (UniProt P05622 32-1098, limits assumed). Description: cell-based or functional assay.
Test [8] concerns NIH/3T3-Luc cells. Briefly: PDGF bioactivity luciferase reporter assay. Format: cell-based. Particulars: PDGF for 5 hours. The procedure:
NIH/3T3 fibroblast cells (ATCC) were thawed, seeded at 10,000 cell/cm^2, and expanded in growth medium consisting of DMEM containing 10% (v/v) fetal bovine serum (R&D Systems, Minneapolis, MN). Cultures were routinely maintained at 37° C. and 5% CO2 and passaged at 60-70% confluence. After three passages of expansion, NIH/3T3 cells were grown in Eagle's Minimal Essential Medium (EMEM, ATCC) for a single passage prior to transfection. Transfection mixtures were prepared according to the manufacturer's protocols. Briefly, 2500 ng of luciferase reporter plasmid pGL4.33 [luc2P/SRE/Hygro] […]
NIH/3T3-Luc cells were seeded at 31,250 cells/cm^2 and incubated in 100 μL of growth medium overnight in 96 well plates. […] Luminescence was then measured using SpectraMax 13 plate reader (Molecular Devices, San Jose, CA).
PDGF bioactivity was assessed using NIH/3T3 cells transfected with a firefly luciferase gene reporter plasmid that links multiple ERK1/2 signaling pathways, including PDGFRβ signaling, to luciferase expression through a serum response element under the regulation of ERK1/2 (FIG. 30A). […] Firefly luciferase expression was assessed via the conversion of 5′-fluoroluciferin to oxyfluoroluciferin, which generates a stable luminescent output correlated to firefly luciferase concentration. […]
In general terms: In a reporter assay the amount or activity of a reporter protein is the signal.

The target in test [9] is T2, Recombinant VEGF165 (vascular endothelial growth factor) (UniProt P15692-4 27-191, biotinylated (bVEGF) in flow cytometry and BLI).
T2 construct: also called VEGF-A (165); bVEGF
Briefly: biolayer interferometry, 25 nM bVEGF on streptavidin probes, soluble affibody 15.625-125 nM. How it is done:
All samples were diluted in PBS solution containing 0.05% Tween-20® (PBST). […] Dissociation constants were obtained from a 1:1 global curve fitting of the data. n=4.
For orientation: Biolayer interferometry detects binding as a change in optical thickness at a sensor tip.

The target of test [10] is T3, Recombinant human BMP-2 (bone morphogenetic protein 2) (human, UniProt P12643 283-396, biotinylated with Sulfo-NHS-Biotin (bBMP-2) in flow cytometry and BLI).
T3 construct: Bought protein; also called bBMP-2; bBMP
T3 sequence (P12643 283-396 limits assumed): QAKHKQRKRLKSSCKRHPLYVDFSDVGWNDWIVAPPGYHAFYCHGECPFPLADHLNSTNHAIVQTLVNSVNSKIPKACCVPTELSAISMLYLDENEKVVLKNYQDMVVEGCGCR
Description: flow cytometry, yeast-displayed affibody titrated with bBMP-2 0.5-1000 nM. An excerpt: Yeast clones with names starting with the letter A were identified using the gating approach in FIG. 2A, and yeast clones with names starting with B were identified using the gate approach in FIG. 2B. The affibodies chosen for further characterization are boxed in the legend.

Chain of PDGF receptor beta (PDGFRβ) on NIH/3T3-Luc cells (P05622 32-1098 limits assumed): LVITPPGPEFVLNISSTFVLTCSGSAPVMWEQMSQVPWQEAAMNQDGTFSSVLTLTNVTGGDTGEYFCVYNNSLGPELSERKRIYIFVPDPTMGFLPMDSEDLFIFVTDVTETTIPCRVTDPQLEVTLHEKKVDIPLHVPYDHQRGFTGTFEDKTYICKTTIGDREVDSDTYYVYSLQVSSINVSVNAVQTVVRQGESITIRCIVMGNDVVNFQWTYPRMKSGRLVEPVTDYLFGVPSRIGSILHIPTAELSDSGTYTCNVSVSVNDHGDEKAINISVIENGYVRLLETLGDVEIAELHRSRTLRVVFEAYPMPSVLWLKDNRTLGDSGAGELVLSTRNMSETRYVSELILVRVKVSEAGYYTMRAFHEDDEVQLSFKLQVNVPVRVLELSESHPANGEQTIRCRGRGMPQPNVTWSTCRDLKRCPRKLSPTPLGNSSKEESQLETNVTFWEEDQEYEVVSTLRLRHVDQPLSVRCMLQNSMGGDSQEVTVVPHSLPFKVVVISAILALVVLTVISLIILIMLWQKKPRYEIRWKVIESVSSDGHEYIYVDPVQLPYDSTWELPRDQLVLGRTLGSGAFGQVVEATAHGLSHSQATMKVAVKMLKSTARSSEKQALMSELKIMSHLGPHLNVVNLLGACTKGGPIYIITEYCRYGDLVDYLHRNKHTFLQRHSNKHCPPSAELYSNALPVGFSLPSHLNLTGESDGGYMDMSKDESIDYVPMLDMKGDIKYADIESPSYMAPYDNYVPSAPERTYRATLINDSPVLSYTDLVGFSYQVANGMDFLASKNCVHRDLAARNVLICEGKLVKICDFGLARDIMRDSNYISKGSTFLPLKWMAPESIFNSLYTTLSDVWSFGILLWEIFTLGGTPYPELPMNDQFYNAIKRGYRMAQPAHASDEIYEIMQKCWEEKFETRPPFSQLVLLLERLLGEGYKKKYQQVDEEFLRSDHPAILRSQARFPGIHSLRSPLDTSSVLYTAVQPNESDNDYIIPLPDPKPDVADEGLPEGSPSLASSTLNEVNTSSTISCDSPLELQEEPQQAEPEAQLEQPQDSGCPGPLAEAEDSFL
Chain of integrin α5β1 (P08648 42-894 limits assumed): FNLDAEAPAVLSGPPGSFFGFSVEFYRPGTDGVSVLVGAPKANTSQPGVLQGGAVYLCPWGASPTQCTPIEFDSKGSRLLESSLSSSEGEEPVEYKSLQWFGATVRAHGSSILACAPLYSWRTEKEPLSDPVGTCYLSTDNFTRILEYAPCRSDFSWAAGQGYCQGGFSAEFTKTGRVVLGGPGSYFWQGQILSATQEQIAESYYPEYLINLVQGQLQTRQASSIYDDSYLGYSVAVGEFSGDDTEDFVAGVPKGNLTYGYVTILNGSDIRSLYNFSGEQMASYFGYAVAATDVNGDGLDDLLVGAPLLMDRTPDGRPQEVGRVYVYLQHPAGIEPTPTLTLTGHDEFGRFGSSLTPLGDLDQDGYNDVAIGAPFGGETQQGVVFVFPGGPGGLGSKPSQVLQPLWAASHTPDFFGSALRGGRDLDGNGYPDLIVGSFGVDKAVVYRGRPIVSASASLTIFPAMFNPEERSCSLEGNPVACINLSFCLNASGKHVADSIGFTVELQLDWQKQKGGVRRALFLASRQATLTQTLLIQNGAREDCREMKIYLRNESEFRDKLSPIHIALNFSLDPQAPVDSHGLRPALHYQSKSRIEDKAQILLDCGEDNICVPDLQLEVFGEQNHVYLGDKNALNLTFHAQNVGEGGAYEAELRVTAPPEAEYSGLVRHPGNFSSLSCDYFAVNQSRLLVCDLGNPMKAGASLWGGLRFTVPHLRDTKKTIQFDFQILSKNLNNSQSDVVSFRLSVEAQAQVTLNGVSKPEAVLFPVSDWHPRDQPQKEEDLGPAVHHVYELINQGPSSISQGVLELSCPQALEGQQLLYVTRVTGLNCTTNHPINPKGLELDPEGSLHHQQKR
Chain of integrin α5β1 (P08648 895-1049 limits assumed): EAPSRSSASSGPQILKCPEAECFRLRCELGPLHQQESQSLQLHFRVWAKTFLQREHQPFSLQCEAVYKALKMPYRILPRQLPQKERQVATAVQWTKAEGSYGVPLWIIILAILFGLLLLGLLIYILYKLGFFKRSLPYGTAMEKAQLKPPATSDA
Chain of integrin α5β1 (P05556 21-798): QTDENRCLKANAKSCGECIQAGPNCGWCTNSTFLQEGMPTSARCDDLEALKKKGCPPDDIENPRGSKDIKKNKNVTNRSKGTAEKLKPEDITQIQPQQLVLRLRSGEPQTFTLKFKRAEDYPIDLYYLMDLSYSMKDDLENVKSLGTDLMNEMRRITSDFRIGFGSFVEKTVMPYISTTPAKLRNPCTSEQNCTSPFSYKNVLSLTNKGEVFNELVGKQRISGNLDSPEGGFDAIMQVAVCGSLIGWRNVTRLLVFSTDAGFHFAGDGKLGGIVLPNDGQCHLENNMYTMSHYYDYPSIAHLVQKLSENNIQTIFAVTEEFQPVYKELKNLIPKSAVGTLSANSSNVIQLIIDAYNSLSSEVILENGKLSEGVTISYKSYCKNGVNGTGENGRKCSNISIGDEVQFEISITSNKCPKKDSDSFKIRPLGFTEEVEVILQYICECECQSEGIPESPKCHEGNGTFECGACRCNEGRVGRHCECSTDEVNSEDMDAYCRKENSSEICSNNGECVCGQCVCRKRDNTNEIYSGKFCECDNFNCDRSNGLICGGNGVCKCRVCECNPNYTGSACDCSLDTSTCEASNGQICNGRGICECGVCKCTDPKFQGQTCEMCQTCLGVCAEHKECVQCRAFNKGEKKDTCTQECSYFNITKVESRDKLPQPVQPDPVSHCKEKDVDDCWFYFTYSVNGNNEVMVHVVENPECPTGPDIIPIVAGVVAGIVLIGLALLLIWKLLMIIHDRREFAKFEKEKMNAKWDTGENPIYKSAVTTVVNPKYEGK
Chain of antithrombin-III (P01008 33-464, species assumed): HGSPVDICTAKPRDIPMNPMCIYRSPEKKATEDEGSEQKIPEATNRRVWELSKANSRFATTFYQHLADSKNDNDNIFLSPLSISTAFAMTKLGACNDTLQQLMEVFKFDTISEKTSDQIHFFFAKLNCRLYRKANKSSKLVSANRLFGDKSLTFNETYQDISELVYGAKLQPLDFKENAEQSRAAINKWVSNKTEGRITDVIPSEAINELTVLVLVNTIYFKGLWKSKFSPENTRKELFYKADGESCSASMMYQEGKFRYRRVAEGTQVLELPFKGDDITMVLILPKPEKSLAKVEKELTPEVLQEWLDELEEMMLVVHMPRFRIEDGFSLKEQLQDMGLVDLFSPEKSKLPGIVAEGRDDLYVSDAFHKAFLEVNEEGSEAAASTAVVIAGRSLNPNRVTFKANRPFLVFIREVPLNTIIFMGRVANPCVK

In the case of heparin, the dissociation constant (Kd) (as a rule, the constant that tells how readily two partners part at equilibrium) in test [1] is 163 nM; in test [2], 2040 nM; in [3] it was 461 nM; in [4], 165 nM.

On to VEGF, for which, in test [5], the “HUVEC network length and branching” value is reported as “limited impact”. Also, in test [6], the maximum response entry is on record as “approximately 36,000 relative luminescent units (RLUs)”.

As to FGF-2: Recombinant FGF-2 (PeproTech), in test [5] (5, 10, or 50 ng/mL), the “HUVEC network length and branching” value is listed as “limited impact”.

B1: Recombinant human PDGF-BB (platelet-derived growth factor) (ligand, UniProt P01127 82-190, looked up)
chain: SLGSLTIAEPAMIAECKTRTEVFEISRRLIDRTNANFLVWPPCVEVQRCSGCCNNRNVQCRPTQVQLRPVQVRKIEIVRKKPIFKKATVTLEDHLACKCETVAAARPVT
modifications: biotinylated (bPDGF) in flow cytometry and off-target BLI; not biotinylated in the Ni-NTA BLI
As to B1, the “50% effective dose (EC50), luminescence of NIH/3T3-Luc reporter cells” value in test [7] amounted to 2.94 ng/mL.

B2: PDGF: Recombinant PDGF-BB (PeproTech) (protein)
chain: B1 chain
Turning to B2, the “HUVEC network length and branching” value in test [5] (5, 10, or 50 ng/mL) was “limited impact”. Also, the maximal response in test [8] is listed as 23,655 relative luminescent units (RLUs).

B3: Moderate Affinity BMP-2 Affibody, soluble, with hexahistidine tag and C-terminal cysteine (SEQ ID NO: 72) (designed binder)
chain: AEAKYAKEQFNAYVVIFYLPNLTASQKAAFVDALSNDPSQSSELLSEAKKLNDSQAPKHHHHHHC
notes: E. coli-expressed; also called A2-2
On to B3, for which the binding result in test [9] is on record as “no binding (tested: 125 nM)”.

B4: Moderate Affinity BMP-2 affibody A2-2 (SEQ ID NO: 2), yeast-displayed (designed binder)
chain: AEAKYAKEQFNAYVVIFYLPNLTASQKAAFVDALSNDPSQSSELLSEAKKLNDSQAPK
For the molecule B4, in test [10], the EC50 (read off the curve) (commonly the concentration needed to bring the measured effect to its halfway point) was about 20 nM.

B5: BMP-2 affibody A3-2 (SEQ ID NO: 9), yeast-displayed (designed binder)
chain: B4 chain
Turning to B5, in test [10], the “EC50 (read off the curve)” value was about 10 nM.
